Experimental data taken from US12448358B2, “Inhibitors of protein arginine deiminase 1 and methods of preparation and use thereof” (University of Massachusetts, priority 2019, dated 2025).

What was measured:
PAD1 [1] = target: T1, PAD1 (Homo sapiens, UniProt Q9ULC6); assay: Histone H3 citrullination in HEK293TPAD1 cells; type: cell-based; settings: 1 mM CaCl2, 5 μM ionomycin, 3 h, read-out: EC50 of inhibition of histone H3 citrullination
T1 construct: made in house
T1 sequence (Q9ULC6 1-663): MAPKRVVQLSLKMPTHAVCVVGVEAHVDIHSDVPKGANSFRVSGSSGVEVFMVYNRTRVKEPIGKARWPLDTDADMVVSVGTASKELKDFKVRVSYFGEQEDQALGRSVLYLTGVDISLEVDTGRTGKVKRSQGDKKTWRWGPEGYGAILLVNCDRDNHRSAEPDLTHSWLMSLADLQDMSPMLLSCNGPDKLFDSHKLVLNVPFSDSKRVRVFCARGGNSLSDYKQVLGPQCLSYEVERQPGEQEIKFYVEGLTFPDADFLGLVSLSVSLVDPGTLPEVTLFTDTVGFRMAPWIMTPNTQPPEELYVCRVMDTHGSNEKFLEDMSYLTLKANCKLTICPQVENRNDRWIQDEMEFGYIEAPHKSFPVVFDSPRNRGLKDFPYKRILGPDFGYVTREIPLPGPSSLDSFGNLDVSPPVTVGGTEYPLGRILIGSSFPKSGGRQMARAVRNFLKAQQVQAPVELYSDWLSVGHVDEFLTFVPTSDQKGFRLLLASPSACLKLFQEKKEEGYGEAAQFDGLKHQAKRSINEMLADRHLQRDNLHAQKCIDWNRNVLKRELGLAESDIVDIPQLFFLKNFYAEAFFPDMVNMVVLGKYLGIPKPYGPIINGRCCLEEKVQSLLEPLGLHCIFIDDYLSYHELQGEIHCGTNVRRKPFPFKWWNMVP
Protocol: The final concentration of DMSO in each well was 1%. […] All the experiments were performed at least in duplicate.

HEK293TPAD1 cells = assay: Cytotoxicity studies (XTT) in HEK293TPAD1 cells; type: cell-based, human; settings: cytotoxicity EC50 (XTT, 24 h) over EC50 for histone H3 citrullination
Protocol: Cytotoxicity Studies. HEK293TPAD1 cells were seeded (2×10^4 cells/well) on 96-well plate and were allowed to grow in DMEM (supplemented with 10% heat-inactivated fetal bovine serum, 100 units/mL penicillin, 100 μg/mL streptomycin and 0.15 mg/mL hygromycin B) for 24 h. Cells were then treated with DMSO or various concentrations of inhibitor at 37° C. for 24 h. Activated XTT reagent (ATCC) was added to each well and cells were further incubated at 37° C. for 5 h. Cell viability was measured by recording the absorbance at 475 nm and 660 nm. Equation 3, Y=Bottom+(Top−Bottom)/[1+10^((logEC50-X)*Hillslope)] (3), was used to fit an eight-point dose-response curve to determine the EC50 values for inhibition of cell-proliferation using GraphPad Prism 7.03. Top and Bottom are plateaus of the dose-response curve, X is the log of inhibitor-concentration, Hillslope is the slope factor or Hill slope. All the experiments were performed at least in triplicate.

pronuclear mouse zygotes = assay: Early embryo development of pronuclear mouse zygotes; type: cell-based; settings: 100 μM inhibitor, 100 h of culture, 87% of control zygotes reached blastocyst stage
Protocol: (§1) In Vitro Fertilization. Female ICR mice (4-6 weeks) were injected intraperitoneally with 10 international units (IU) of pregnant mare serum gonadotropin (PMSG) and after 46 h, 10 IU of human chorionicgonadotropin (hCG). After 16 h, cumulus masses were released from oviducts into HEPES-buffered HTF culture medium (HTF) (InVitro Care, Frederick, MD). Cauda epididymal mouse spermatozoa were released and placed in drops of HTF culture medium (InVitro Care). Then the sperm suspensions were added to the cumulus mass drops with a final concentration of approximately 1-3×10^5/mL. Zygotes were collected and transferred to KSOM medium containing 100 μM PAD1 inhibitor or equal volume of DMSO as a control. Then 4-cell and blastocyst stage embryos were collected after 48 and 100 h of culture, respectively.

PAD1 [2] = target: T2, PAD1 (Mus musculus, UniProt Q9Z185); assay: Histone H3 citrullination in mouse embryos (immunofluorescence, confocal microscopy); type: cell-based; settings: mouse embryos at the 4-cell stage, 100 μM inhibitor
T2 construct: endogenously expressed cellular PAD1 in mouse zygotes; endogenous in cells; host or cells: ICR mouse zygotes / 4-cell embryos from in vitro fertilization
T2 sequence (Q9Z185 1-662): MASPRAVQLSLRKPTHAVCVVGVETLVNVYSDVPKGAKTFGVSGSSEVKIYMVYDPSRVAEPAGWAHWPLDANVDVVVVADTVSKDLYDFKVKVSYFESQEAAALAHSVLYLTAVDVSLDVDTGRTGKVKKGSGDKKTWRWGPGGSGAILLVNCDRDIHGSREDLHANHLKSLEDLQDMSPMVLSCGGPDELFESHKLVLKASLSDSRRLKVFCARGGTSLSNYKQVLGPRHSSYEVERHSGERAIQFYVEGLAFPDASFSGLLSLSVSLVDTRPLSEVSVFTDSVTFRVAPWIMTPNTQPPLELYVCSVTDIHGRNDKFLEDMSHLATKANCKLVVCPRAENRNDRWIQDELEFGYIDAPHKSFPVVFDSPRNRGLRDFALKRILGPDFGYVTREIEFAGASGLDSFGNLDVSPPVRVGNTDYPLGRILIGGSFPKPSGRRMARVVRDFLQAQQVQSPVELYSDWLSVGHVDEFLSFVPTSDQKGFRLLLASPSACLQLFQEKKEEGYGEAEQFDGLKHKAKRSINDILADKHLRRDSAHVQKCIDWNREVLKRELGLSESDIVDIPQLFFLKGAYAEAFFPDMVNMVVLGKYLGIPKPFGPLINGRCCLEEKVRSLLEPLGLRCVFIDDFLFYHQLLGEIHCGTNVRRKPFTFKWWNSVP
Protocol: as §1
Immunofluorescent and Confocal Microscopy. Embryos were fixed in 4% paraformaldehyde in PBS (pH 7.4) for 30 min and then permeabilized in 0.5% Triton X-100 for 30 min at room temperature. After blocking in 1% BSA/PBS at room temperature for 1 h, samples were incubated with anti-H3Cit2/8/17 antibody (Catalogue no. ab77164, Abcam) (1:100) at 4° C. for 12 h. After five washes, samples were incubated with FITC-conjugated secondary antibody for 1 h at room temperature. Nuclei were counterstained with DAPI for 5 min. […]

Row | EC50 (PAD1 [1]) | Structure (SMILES) | Efficacy Index (the ratio of cytotoxicity to EC50) (HEK293TPAD1 cells) | Effect on early embryo development (pronuclear mouse zygotes) | Inhibition of histone H3 citrullination in embryos (PAD1 [2])
1 | 31.8 µM | N=C(CF)NCCC[C@H](NC(=O)c1cc(I)c(F)c(I)c1O)c1nc2ccccc2[nH]1 [Compound 19] | 10 | dramatic arrest of embryo development at the morula stage | dramatically inhibit histone H3 citrullination
2 | 14.5 µM | N=C(CF)NCCC[C@H](NC(=O)c1cc(I)cc(I)c1O)c1nc2ccccc2[nH]1 [Compound 1] | 17 | dramatic arrest of embryo development at the morula stage | dramatically inhibit histone H3 citrullination
